The source of these data is ChEMBL document CHEMBL1149216, “Benzene-di-N-octylcarbamates as conformationally constrained phospholipase A(2) inhibitors” (Bioorg Med Chem Lett, 2004).

For assay [1], the target named is Phospholipase A2, major isoenzyme (Sus scrofa) (UniProt P00592). The assay can be described thus: k_2 value calculated from 1/Ki=(1/Ks)(k2/k_2). The settings on record: naja mocambique mocambique.
Assay [2] has the same target. The assay can be described thus: Pre-steady-state inhibition constant against phospholipase A2. As to conditions: naja mocambique mocambique.

SMILES strings stand for the structures.

Phospholipase A2, major isoenzyme (Sus scrofa), sequence (P00592 23-146 limits assumed): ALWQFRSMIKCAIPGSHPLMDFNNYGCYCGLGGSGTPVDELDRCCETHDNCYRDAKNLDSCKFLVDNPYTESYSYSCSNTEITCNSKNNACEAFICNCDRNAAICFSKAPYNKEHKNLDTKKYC

With `CCCCCCCCNC(=O)Oc1ccc(OC(=O)NCCCCCCCC)cc1`, the k 2 in assay [1] was 0.15 s⁻¹. In assay [2], the K2 came to 0.21 s⁻¹ and the Ks was determined as 21 µM.
In the case of `CCCCCCCCNC(=O)Oc1cccc(OC(=O)NCCCCCCCC)c1`, the k 2 in assay [1] was 0.033 s⁻¹. For the same molecule, in assay [2], the K2 came out at 0.13 s⁻¹ and the Ks amounted to 16 µM.
On the same counts, the results for `CCCCCCCCNC(=O)Oc1ccccc1OC(=O)NCCCCCCCC` are 0.028 s⁻¹, 0.17 s⁻¹ and 68 µM.
